In assay [1] the target is T1, recombinant RfBGluc-1 β-glucosidase (Reticulitermes flavipes, UniProt D9ILU1).
T1 sequence (D9ILU1 18-495): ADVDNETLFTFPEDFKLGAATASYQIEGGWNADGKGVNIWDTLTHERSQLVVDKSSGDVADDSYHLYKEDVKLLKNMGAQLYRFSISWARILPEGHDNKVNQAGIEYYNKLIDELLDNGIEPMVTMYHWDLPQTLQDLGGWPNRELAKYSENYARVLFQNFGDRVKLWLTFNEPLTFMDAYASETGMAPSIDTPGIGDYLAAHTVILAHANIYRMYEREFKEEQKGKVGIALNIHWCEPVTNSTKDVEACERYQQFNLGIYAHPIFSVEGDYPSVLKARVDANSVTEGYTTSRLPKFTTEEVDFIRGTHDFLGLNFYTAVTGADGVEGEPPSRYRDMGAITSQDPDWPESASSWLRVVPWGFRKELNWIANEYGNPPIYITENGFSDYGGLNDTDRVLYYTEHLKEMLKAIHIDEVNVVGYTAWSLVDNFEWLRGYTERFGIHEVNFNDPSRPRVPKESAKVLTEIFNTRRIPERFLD
As to the kind of experiment: Activity of recombinant RfBGluc-1 towards synthetic nitrophenol substrates, kinetic microplate assay. Particulars: percent activity rankings based on Vmax; pNP-βD-Glucopyranoside = 100. The class given is biochemical. On the procedure:
All initial characterization assays took place in 0.1 M sodium acetate buffer (pH 6) using 2 μL of recombinant enzyme preparation (=1.58 μg protein per assay) in a total reaction volume of 250 μL. Synthetic p-nitrophenol substrates (Table 1) were tested in direct kinetic assays using a microplate reader. Reactions were initiated by adding 248 μL assay buffer to 2 μL protein. Assays were read at 420 nm every 20 sec for 5 min to yield mean velocity data in mOD/min. Specific activity was determined with the p-nitrophenol extinction coefficient of 0.6605 mM^−1 cm^−1. All results were averaged from three independent replicates, each conducted in triplicate.

Assay [2] concerns the target T1, recombinant RfBGluc-1 β-glucosidase. As to the kind of experiment: Activity of recombinant RfBGluc-1 towards natural substrates, endpoint glucose detection assay. It counts as biochemical. On the procedure:
Natural carbohydrate substrates (Table 2) were tested in endpoint assays in which color development was enabled using 439-90901 glucose-mutarose detection reagent (Wako Chemical; Richmond, Va.). Assays were conducted in 125 μL for 5 min at room temperature as described above and stopped with the addition of 125 μL glucose detection reagent. After 1 min, the absorbance was read at 505 nm.

In another assay the target is RfLacA (Reticulitermes flavipes, UniProt D0E8H0). The assay is described as follows: RfLacA substrate specificity and kinetic parameters.
Sequence of RfLacA (D0E8H0 entry or part of it): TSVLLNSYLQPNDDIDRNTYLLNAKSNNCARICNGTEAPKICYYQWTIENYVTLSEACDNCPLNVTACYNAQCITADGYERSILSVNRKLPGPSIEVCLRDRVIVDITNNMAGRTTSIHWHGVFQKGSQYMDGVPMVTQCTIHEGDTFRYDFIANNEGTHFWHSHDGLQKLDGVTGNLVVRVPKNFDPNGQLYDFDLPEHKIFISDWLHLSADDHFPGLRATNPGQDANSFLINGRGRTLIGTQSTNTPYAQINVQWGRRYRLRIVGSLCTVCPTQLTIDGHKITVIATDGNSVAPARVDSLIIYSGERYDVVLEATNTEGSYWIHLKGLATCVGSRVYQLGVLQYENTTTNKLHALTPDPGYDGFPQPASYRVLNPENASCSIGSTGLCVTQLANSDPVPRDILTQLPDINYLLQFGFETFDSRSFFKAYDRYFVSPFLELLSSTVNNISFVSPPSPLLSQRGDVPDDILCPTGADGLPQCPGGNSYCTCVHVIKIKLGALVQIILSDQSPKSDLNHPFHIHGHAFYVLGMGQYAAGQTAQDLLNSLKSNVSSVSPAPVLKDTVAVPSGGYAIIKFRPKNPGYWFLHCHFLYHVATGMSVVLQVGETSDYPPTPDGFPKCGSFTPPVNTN
The next assay concerns Cell-1. Particulars: for effect on Cell-1 temperature stability: pre-incubation at 60° C. and 70° C., 0-60 min.
A short description of assay [3]: Characterisation of recombinant RfLacA and RfLacB isoforms. The class given is biochemical.
The mark [4] stands for this setting: RfLacA, 1 mM substrate, hydroquinone = 100.

Several values for one entry are separate records, joined by “and”; a condition that tells them apart may be missing. Equal entries are not always repeated. Where two headings read alike, the source gives them in different places.

Procedure for Cell-1: Thermal stability tests were conducted using 1.5% CMC in 100 mM sodium phosphate at the optimal pH of 7. Temperature-cofactor studies were performed using 1.5% CMC dissolved in 100 mM sodium phosphate (pH 7) alone, plus 4 mM EDTA (final concentration), or plus 10 mM calcium chloride (final concentration). Pre-incubations took place for 0-5 days at 25° C. or 0-60 min at 60° C. or 70° C.; reactions were terminated by the combination of adding stop solution and boiling for 10 min, and then assays were read at 25° C.
Calcium as a cofactor in β-1,4-endoglucanase Cell-1 hydrolytic activity and temperature stability: The effects of calcium on recombinant Cell-1 activity were investigated using calcium chloride as a calcium source and EDTA as a potential calcium chelator.

With `O=[N+]([O-])c1ccccc1O[C@@H]1OC[C@@H](O)[C@H](O)[C@H]1O` [oNP-βD-Xylopyranoside], in assay [1], the “Activity (%)” value came to 38%.

As for `O=[N+]([O-])c1ccc(O[C@@H]2O[C@H](CO)[C@@H](O[C@@H]3O[C@H](CO)[C@@H](O[C@@H]4O[C@H](CO)[C@@H](O[C@@H]5O[C@H](CO)[C@@H](O)[C@H](O)[C@H]5O)[C@H](O)[C@H]4O)[C@H](O)[C@H]3O)[C@H](O)[C@H]2O)cc1` [pNP-βD-Cellotetraoside, p-nitrophenyl-beta-D-cellotetraoside], the “Activity (%)” value in assay [1] is reported as 73%.

Regarding `C[C@H]1O[C@@H](Oc2ccc([N+](=O)[O-])cc2)[C@H](O)[C@@H](O)[C@H]1O` [pNP-βD-Fucopyranoside], the “Activity (%)” value in assay [1] is 55%.

Consider Cellobiose, for which the “Activity (%)” value in assay [2] (percent activity rankings based on Vmax, cellobiose = 100) stood at 100%.

With `COc1cccc(OC)c1O` [2,6-DMP, 2,6-dimethoxyphenol], the “Optimal pH” value at RfLacA (RfLacA, per substrate) is reported as 7.5. In addition, the “Specific Activity at 1 mM [S]” value on RfLacA (RfLacA, 1 mM substrate) came to 2.146 nmol·min/mg. For the same molecule, the “Relative Activity (%)” value at RfLacA (setting [4]) worked out at 25.63%.

As for `OC[C@H]1O[C@@H](O[C@H]2[C@H](O)[C@@H](CO)OC(O)[C@@H]2O)[C@H](O)[C@@H](O)[C@@H]1O` (stereo partly shown) [Laminaribose], the “Activity (%)” value in assay [2] is recorded as 34%.

With `Oc1ccccc1O` [Pyrocatechol], the “Relative Activity (%)” value on RfLacA amounted to 27.65%. In addition, at RfLacA (RfLacA, per substrate), the “Optimal pH” value is 7.5. Also, the “Specific Activity at 1 mM [S]” value on RfLacA (RfLacA, 1 mM substrate) was determined as 2.315 nmol·min/mg.

In the case of `OC[C@H]1O[C@@](CO)(O[C@H]2O[C@H](CO)[C@@H](O)[C@H](O)[C@H]2O)[C@@H](O)[C@@H]1O` [Sucrose], in assay [2], the “Activity (%)” value is 0%.

Consider `NCCC(=O)NCCc1ccc(O)c(O)c1` [NBAD], for which, on RfLacA (RfLacA, 1 mM substrate), the “Specific Activity at 1 mM [S]” value is 0.190 nmol·min/mg. The “Relative Activity (%)” value at RfLacA (setting [4]) was determined as 2.27%.

In the case of `[Ca+2].[Cl-].[Cl-]` [calcium chloride], the “effect on Cell-1 CMC endoglucanase activity” value in the assay on Cell-1 (incubations over a 5-day period at about 25° C.) is “slightly enhanced”. The “effect on Cell-1 temperature stability” value with Cell-1 is reported as “stabilized/extended CMC hydrolysis activity over time”; in the assay with Cell-1 (listed as calcium) it was “improves Cell-1 temperature stability”.

For `O=[N+]([O-])c1ccc(O[C@@H]2OC[C@@H](O)[C@H](O)[C@H]2O)cc1` [pNP-βD-Xylopyranoside], in assay [1], the “Activity (%)” value turned out to be 0%.

Consider `O=[N+]([O-])c1ccc(O[C@@H]2O[C@H](CO)[C@H](O)[C@H](O)[C@H]2O)cc1` [pNP-βD-Galactopyranoside], for which the “Activity (%)” value in assay [1] came to 0%.

For `O=[N+]([O-])c1ccc(O[C@H]2OC[C@H](O)[C@H](O)[C@H]2O)cc1` [pNP-βL-Arabinopyranoside], in assay [1], the “Activity (%)” value is 0%.

On to `O=[N+]([O-])c1cccc(O[C@H]2O[C@H](CO)[C@H](O)[C@H](O)[C@H]2O)c1` [mNP-αD-Galactopyranoside], for which the “Activity (%)” value in assay [1] stood at 0%.

As for `O=C(O)[C@H]1O[C@@H](Oc2ccc([N+](=O)[O-])cc2)[C@H](O)[C@@H](O)[C@@H]1O` [pNP-βD-Glucuronide], the “Activity (%)” value in assay [1] turned out to be 0%.

As for `Oc1cccc(O)c1O` [Pyrogallol], the “Optimal pH” value at RfLacA (RfLacA, per substrate) is reported as 7. Besides, the “Specific Activity at 1 mM [S]” value at RfLacA (RfLacA, 1 mM substrate) came to 1.482 nmol·min/mg. For the same molecule, at RfLacA (setting [4]), the “Relative Activity (%)” value is on record as 17.70%.

As for `O=[N+]([O-])c1ccccc1O[C@@H]1O[C@H](CO)[C@@H](O)[C@H](O)[C@@H]1O` [oNP-βD-Mannopyranoside], in assay [1], the “Activity (%)” value is 0%.

As to `O=[N+]([O-])c1ccc(O[C@@H]2O[C@H](CO)[C@@H](O[C@@H]3O[C@H](CO)[C@@H](O)[C@H](O)[C@H]3O)[C@H](O)[C@H]2O)cc1` [pNP-βD-Cellobioside, p-nitrophenyl-beta-D-cellobioside], the “Activity (%)” value in assay [1] was 60%.

`O=[N+]([O-])c1ccc(O[C@@H]2O[C@H](CO)[C@@H](O[C@@H]3O[C@H](CO)[C@@H](O[C@@H]4O[C@H](CO)[C@@H](O)[C@H](O)[C@H]4O)[C@H](O)[C@H]3O)[C@H](O)[C@H]2O)cc1` [pNP-βD-Cellotrioside, p-nitrophenyl-beta-D-cellotrioside]: the “Activity (%)” value in assay [1] is on record as 98%.

With `OCc1ccccc1O[C@@H]1O[C@H](CO)[C@@H](O)[C@H](O)[C@H]1O` [Salicin], the “Activity (%)” value in assay [2] came out at 44%.

In the case of `O=[N+]([O-])c1ccc(O[C@H]2O[C@H](CO)[C@H](O)[C@H](O)[C@H]2O)cc1` [pNP-αD-Galactopyranoside], the “Activity (%)” value in assay [1] is 0%.

`COc1cc(/C=C/C(=O)O)cc(OC)c1O` [Sinapinic Acid]: the “Relative Activity (%)” value on RfLacA stood at 40.40%. Besides, the “Optimal pH” value on RfLacA (RfLacA, per substrate) is recorded as 7.5. Further, the “Specific Activity at 1 mM [S]” value at RfLacA (RfLacA, 1 mM substrate) turned out to be 3.383 nmol·min/mg.

Consider `N[C@@H](Cc1ccc(O)c(O)c1)C(=O)O` [L-DOPA], for which the “Optimal pH” value on RfLacA (RfLacA, per substrate) is 6.0 and 7.5. Further, the “Specific Activity at 1 mM [S]” value on RfLacA (RfLacA, 1 mM substrate) was 0.676 nmol·min/mg. For the same molecule, the “Relative Activity (%)” value on RfLacA (setting [4]) turned out to be 8.07%.

As to `CC(=O)NCCc1ccc(O)c(O)c1` [NADA], the “Relative Activity (%)” value on RfLacA was 9.08%. Further, the “Specific Activity at 1 mM [S]” value on RfLacA (RfLacA, 1 mM substrate) came out at 0.760 nmol·min/mg.

Take `O=[N+]([O-])c1ccc(O[C@@H]2O[C@H](CO)[C@@H](O)[C@H](O)[C@H]2O)cc1` [pNP-βD-Glucopyranoside, p-nitrophenyl-beta-D-glucopyranoside]: in assay [1], the “Activity (%)” value was 100%.

For the molecule `O=[N+]([O-])c1ccccc1O[C@@H]1O[C@H](CO)[C@@H](O)[C@H](O)[C@H]1O` [oNP-βD-Glucopyranoside], the “Activity (%)” value in assay [1] turned out to be 18%.

On to `Oc1ccc(O)cc1` [Hydroquinone], for which, at RfLacA, the “Optimal pH” value was determined as 7, the “Relative Activity (%)” value is 100.00% and the “Specific Activity at 1 mM [S]” value came to 8.373 nmol·min/mg. Moreover, the “Apparent Vmax” value on RfLacA (RfLacA, footnote: maximal specific activities in nmol/min/mg) is recorded as 0.824 μm min^−1.

B1: RfLacB: recombinant R. flavipes gut laccase isoform 2, clone Lac12, SEQ ID NO.: 12 (protein)
chain: VYRSDAYIMLPCVLLACAIGVASATSVLLNSYLQPNDDIDRNTYLLNAKSNNCARICNGTEAPKICYYQWTIENYVTLSEACDNCPLNVTACYNAQCITADGYERSILSVNRKLPGPSIEVCLRDRVIVDITNNMAGRTTSIHWHGVFQKGSQYMDGVPMVTQCTIHEGDTLRYDFIANNEGTHFWHSHDGLQKLDGVTGNLVVRVPKNFDPNGQLYDFDLPEHKIFISDWLHLSADDHFPGLRATNPGQDANSFLINGRGRTLIGTQSTNTPYAQINVQWGRRYRLRIVGSLCTVCPTQLTIDGHKITVIATDGNSVAPARVDSLIIYSGERYDVVLEATNTEGSYWIHLKGLVTCVGSRVYQLGVLQYENTTTNKLHALTPDPGYDGFPQPASYRVLNPENASCSIGSTGLCVTQLANSDPVPRDILTQLPDINYLLQFGFKIFDSRSFFKAYDRYFVSPFLDLVSSTVNNISSVSPPSPLLSQRGDVPDDVLCPTGADGLPQCPGGNSYCTCVHVIKIKLGALVQIILSDQTPKSGLNHPFHLHGHAFYVLGMGQYAAGQTAQDLLNSLKSNVSSVSPAPVLKDTIAVPSGGYAIIKFRPKNPGYWFLHCHFLYHVATGMSVVLQVGETSDYPPTPDGFPKCGSFTPPVNTN
modifications: Reticulitermes flavipes; amino acid sequence Laccase Lacc-12
As to B1, in assay [3], the “Results of RfLacB isoform compared with RfLacA against all substrates” value is given as “statistically indistinguishable results to RfLacA”; the “oxidation of ABTS and syringaldazine” value is “unable to oxidize”.

These data come from patent US8445240B2, “Termite enzymes and uses thereof for in vitro conversion of lignin-containing materials to fermentable products” (University of Florida Research Foundation, Inc., priority 2009, dated 2013).
